{"source": "PubChem BioAssay AID489040", "about": "(Sanford-Burnham Center for Chemical Genomics, 2010)", "note": "pEC50: −log10 of the molar value. Activity calls are given as the source filed them.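 How the source made its calls: active means mean half-maximal activating concentration from the dose-response fit at or below a set limit; inactive means the rest.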"}
{"biological_target": "CHO-XBP1 luciferase reporter, IRE1-XBP1 UPR activation", "assay": "XBP1 luciferase reporter activation – CHO-XBP1 cells, luminescence, counter-screen for apoptotic UPR arm activators, dose response (AID 489040);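 further: reporter read after six hours of compound exposure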"}
{"smiles": "CCC(=O)Nc1ccc(C(=O)Cn2ncc(Cl)c(Cl)c2=O)cc1", "EC50": "> 80 µM (inactive)"}
{"smiles": "CC(C)(C)C(=O)OCc1nc(-c2ccc(O)c(O)c2)cs1", "EC50": "> 80 µM (inactive)"}
{"smiles": "Cc1cc(C)c2c(c1)/C(=c1/sc3n(c1=O)CN(c1ccccc1)CN=3)C(=O)N2", "EC50": "inactive"}
{"smiles": "COc1ccc(CC2=CC(=O)c3ccccc3C2=O)cc1", "EC50": "> 80 µM (inactive)"}
{"smiles": "Clc1ccc(-c2ccc(/C=N/Nc3nncc(-c4ccccc4)n3)o2)cc1", "EC50": "inactive"}
{"smiles": "Cc1ccc(C(=O)C(C(=O)/C=C/c2ccccc2)=C2SCCCS2)cc1", "EC50": "> 80 µM (inactive)"}
{"smiles": "CCc1ccc(N2C(=O)NC(=O)/C(=C\\C=C\\c3ccco3)C2=O)cc1", "EC50": "> 80 µM (inactive)"}
{"smiles": "O=C(Oc1ccccc1/C=C\\C(=O)c1cc2ccccc2o1)c1ccccc1", "EC50": "> 80 µM (inactive)"}
{"smiles": "COc1ccc(N=C2S/C(=C\\c3ccc(N4CCOCC4)o3)C(=O)N2CCc2c[nH]c3ccccc23)cc1", "EC50": "> 80 µM (inactive)"}
{"smiles": "CCOC(=O)CSc1cccc2cccnc12", "EC50": "> 80 µM (inactive)"}
{"smiles": "O=C(CCN1C(=O)/C(=C\\c2ccccc2F)SC1=S)N1CCCCC1", "EC50": "> 80 µM (inactive)"}
{"smiles": "O=c1c2c3c(sc2ncn1/N=C/c1ccc([N+](=O)[O-])o1)CCCC3", "EC50": "> 80 µM (inactive)"}
{"smiles": "Cc1ccc(-c2cc(NC(=O)CCl)n(-c3ccccc3)n2)cc1", "EC50": "> 80 µM (inactive)"}
{"smiles": "CCc1ccccc1NC(=S)N=Nc1c(O)n(C)c2ccc(S(=O)(=O)N3CCOCC3)cc12", "EC50": "> 80 µM (inactive)"}
{"smiles": "Oc1ccc(/C=N/Nc2ncnc3c2ncn3Cc2ccccc2)cc1O", "EC50": "inactive"}
{"smiles": "O=[N+]([O-])c1ccc(Sc2cccc3cccnc23)c([N+](=O)[O-])c1", "EC50": "> 80 µM (inactive)"}
{"smiles": "COc1ccc(OC)c(Nc2nc(-c3ccc(O)c(O)c3)cs2)c1", "EC50": "> 80 µM (inactive)"}
{"smiles": "Cc1cccc(C)c1NC(=O)C(Cl)C(=O)c1ccccc1", "note": "(stereo not given)", "EC50": "> 80 µM (inactive)"}
{"smiles": "N#CC1(C#N)COC23CCCCC2C1(C#N)C(=N)O3", "note": "(stereo not given)", "EC50": "> 80 µM (inactive)"}
{"smiles": "COc1c(Cl)cc(Cl)cc1/C=C/C(=O)c1ccc(NC(=O)c2cccs2)cc1", "EC50": "> 80 µM (inactive)"}
{"smiles": "CN1CCN(c2ccc(NC(=O)c3ccc([N+](=O)[O-])o3)cc2Cl)CC1", "EC50": "> 80 µM (inactive)"}
{"smiles": "Cc1c(C(=O)c2no[n+]([O-])c2C(=O)c2cnn(C)c2C)cnn1C", "EC50": "> 80 µM (inactive)"}
{"smiles": "CC(=O)/C(=N\\Nc1ccc(Cl)cc1Cl)Sc1cccc2cccnc12", "EC50": "> 80 µM (inactive)"}
{"smiles": "O=[N+]([O-])c1ccc(Sc2nnnn2-c2ccccc2)nc1", "EC50": "> 80 µM (inactive)"}
{"smiles": "Cc1ccc2[nH]cc(C(=O)CCl)c2c1", "EC50": "> 80 µM (inactive)"}
{"smiles": "O=C1Nc2ccccc2/C1=C\\C(=O)c1ccccc1", "EC50": "> 80 µM (inactive)"}
{"smiles": "CCOc1ccccc1-n1c(SCC(=O)Nc2ccc(CC)cc2)nc2n[nH]c(C)c2c1=N", "pEC50": 5.10}
{"smiles": "Cc1ccc(C)c(NC(=S)c2ccccn2)c1", "EC50": "> 80 µM (inactive)"}
{"smiles": "O=S(=O)(c1ccc(Cl)cc1)c1snnc1-c1ccccc1", "EC50": "> 80 µM (inactive)"}
{"smiles": "COc1ccc2[nH]cc(C(=O)CCl)c2c1", "EC50": "> 80 µM (inactive)"}
{"smiles": "O=C(Nc1nc(-c2ccccn2)cs1)c1ccc(Cl)s1", "EC50": "inactive"}
{"smiles": "O=C1/C(=C/c2ccc(N3CCOCC3)o2)SC(=Nc2ccccc2)N1CCc1c[nH]c2ccccc12", "EC50": "> 80 µM (inactive)"}
{"smiles": "CNC[C@@H](Cc1ccccc1)NC[C@@H](CC1CCCCC1)NCCCc1ccccc1", "EC50": "> 80 µM (inactive)"}
{"smiles": "O=C(N/N=C/c1ccccn1)c1ccc(Cl)c(Cl)c1", "EC50": "> 80 µM (inactive)"}
{"smiles": "O=C(Nc1ccc(S(=O)(=O)N2CCOCC2)cc1)c1ccc([N+](=O)[O-])o1", "EC50": "> 80 µM (inactive)"}
{"smiles": "O=C(/C=C/Sc1ccc(C(F)(F)F)cn1)c1ccccc1", "EC50": "> 80 µM (inactive)"}
{"smiles": "CCCCCCCCCn1c2c(c(=N)c3c1CCC3)CCC2", "EC50": "> 80 µM (inactive)"}
{"smiles": "CCNc1ccccc1CP(=O)(c1ccccc1)c1ccccc1O", "note": "(stereo not given)", "EC50": "> 80 µM (inactive)"}
{"smiles": "Cc1ccc(C(=O)NC(C#N)=C(Cl)Cl)cc1", "EC50": "> 80 µM (inactive)"}
{"smiles": "COc1ccc(/C=C/C(=O)c2ccc(C(=O)/C=C/c3ccc(OC)c(OC)c3)cc2)cc1OC", "EC50": "> 80 µM (inactive)"}
{"smiles": "O=[N+]([O-])c1cc(O)c2ncccc2c1", "EC50": "> 80 µM (inactive)"}
{"smiles": "Oc1ccc(/C=N/N(c2ccccc2)c2ccccc2)cc1O", "EC50": "inactive"}
{"smiles": "COc1ccc(/C=C\\c2nc(=O)c3ccccc3o2)cc1", "EC50": "> 80 µM (inactive)"}
{"smiles": "CCN(CC)c1ccc(C=C2C(=O)NC(=S)NC2=O)cc1", "EC50": "> 80 µM (inactive)"}
{"smiles": "Cc1cc(C(=O)c2ccc(C(C)(C)C)cc2)c(NC(=O)CCl)s1", "EC50": "> 80 µM (inactive)"}
{"smiles": "CCOC(=O)N1CCN(Cc2cc(Cl)c3cccnc3c2O)CC1", "EC50": "> 80 µM (inactive)"}
{"smiles": "Cn1c2ccccc2c2cc(/C=N/NC(=O)c3cc(O)ccc3O)ccc21", "EC50": "> 80 µM (inactive)"}
{"smiles": "Oc1ccc(CN2CCN(Cc3ccccc3)CC2)c2cccnc12", "EC50": "> 80 µM (inactive)"}
{"smiles": "COc1ccc(-c2cc(-c3ccccc3)c(C#N)c(S(C)(=O)=O)n2)cc1", "pEC50": 5.23}
{"smiles": "COc1cc(NC(=O)c2cncc(-c3ccc(C#N)cc3)c2)cc(C(=O)Nc2cccc(C(F)(F)F)c2)c1", "pEC50": 4.71}
{"smiles": "COc1ccc(NC(=O)c2sc3nc(N4CCOCC4)c4c(c3c2N)CC(C)(C)OC4)c(OC)c1", "EC50": "> 80 µM (inactive)"}
{"smiles": "N#Cc1cc([N+](=O)[O-])c(-n2nnc3ccccc32)c([N+](=O)[O-])c1", "EC50": "inactive"}
{"smiles": "Cc1ccc(-c2nc(NC(=O)c3nn(C)cc3[N+](=O)[O-])sc2C)cc1", "EC50": "> 80 µM (inactive)"}
{"smiles": "Cc1ccc(-c2nn(-c3ccccc3)cc2C=C2C(=O)CC(C)(C)CC2=O)cc1", "EC50": "> 80 µM (inactive)"}
{"smiles": "O=C(NCc1cccnc1)/C(=C/c1ccc(-c2ccc(Cl)cc2)o1)S(=O)(=O)c1ccccc1", "EC50": "> 80 µM (inactive)"}
{"smiles": "O=C(O)CC1CCC(=C(Cl)Cl)C1", "note": "(stereo not given)", "EC50": "> 80 µM (inactive)"}
{"smiles": "COc1ccc(C2c3ccc4ccccc4c3Oc3ncn(CCCN(C)C)c(=N)c32)cc1", "note": "(stereo not given)", "EC50": "> 80 µM (inactive)"}
{"smiles": "O=C(Nc1ccc2oc(-c3ccncc3)nc2c1)c1ccc([N+](=O)[O-])o1", "EC50": "> 80 µM (inactive)"}
{"smiles": "COc1ccc(-n2c(C)cc(C(=O)CCl)c2C)cc1", "pEC50": 5.33}
{"smiles": "C=CCN=c1scc(-c2ccco2)n1/N=C/c1ccc(O)c(O)c1O", "EC50": "> 80 µM (inactive)"}
{"smiles": "CC(C)c1ccc(N2C(=O)CC(Sc3nc4ccccc4o3)C2=O)cc1", "note": "(stereo not given)", "EC50": "> 80 µM (inactive)"}
{"smiles": "CCOC(=O)c1cnc(-n2nc(C)cc2C)nc1NC1CCCCC1", "EC50": "> 80 µM (inactive)"}
{"smiles": "Fc1ccc(NC(=S)Nc2nccs2)cc1", "EC50": "> 80 µM (inactive)"}
{"smiles": "Cn1c(=O)c2c(SCC(=O)Nc3ccccc3F)nc(-c3ccccc3F)nc2n(C)c1=O", "pEC50": 4.96}
{"smiles": "Cc1cc(NC(=O)CCS(=O)(=O)c2nc(-c3ccccc3)cc(C(F)(F)F)n2)no1", "EC50": "> 80 µM (inactive)"}
{"smiles": "O=C(Nc1ccc(NC(=O)c2sc3ccccc3c2Cl)cc1Cl)c1ccco1", "EC50": "inactive"}
{"smiles": "O=C1Nc2ccc(Br)cc2/C1=N/N=C/C1=C(N2CCOCC2)C(=C\\c2ccccc2)/CC1", "EC50": "> 80 µM (inactive)"}
{"smiles": "CCOc1cc(/C=C2/C(=O)ON=C2C)ccc1OCc1ccccc1F", "EC50": "> 80 µM (inactive)"}
{"smiles": "Nc1nnnn1/N=C/C(Br)=C/c1ccccc1", "EC50": "> 80 µM (inactive)"}
{"smiles": "CCOC(=O)C(=Cc1ccc(-n2cncn2)cc1)C(=O)OCC", "EC50": "> 80 µM (inactive)"}
{"smiles": "C=CCNC(=S)N/N=C(\\C)c1ccccn1", "EC50": "> 80 µM (inactive)"}
{"smiles": "CCOc1ccc(-n2c(C)cc(C(=O)CCl)c2C)cc1", "pEC50": 5.23}
{"smiles": "Cc1ccc(NC(=O)c2nc(S(=O)(=O)Cc3ccccc3C)ncc2Cl)cc1C", "EC50": "> 80 µM (inactive)"}
{"smiles": "Cc1ccc(-c2nn3c(C)nnc3s2)cc1NC(=O)c1ccc(-c2ccc(Cl)cc2Cl)o1", "pEC50": 4.80}
{"smiles": "COc1cc(/C=C(/C#N)c2nc3ccccc3[nH]2)ccc1OCC(=O)Nc1ccccc1C", "EC50": "> 80 µM (inactive)"}
{"smiles": "Cc1c(NC(=O)CSc2cccc3cccnc23)c(=O)n(-c2ccccc2)n1C", "EC50": "> 80 µM (inactive)"}
{"smiles": "COc1ccccc1N1CCN(/N=C/c2ccc(O)c(O)c2)CC1", "EC50": "> 80 µM (inactive)"}
{"smiles": "Oc1[nH]c2ccc(Br)cc2c1N=NC(=S)N1CCOCC1", "EC50": "> 80 µM (inactive)"}
{"smiles": "O=C1Nc2ccccc2/C1=C/C(=O)c1cccs1", "EC50": "> 80 µM (inactive)"}
{"smiles": "CCOC(=O)c1sc(N(Cc2ccccc2)C(=O)CCl)nc1C", "pEC50": 5.06}
{"smiles": "C=CCN1C(=O)/C(=C/c2ccc3c(c2)CCCN3CCC)C(=O)NC1=S", "EC50": "> 80 µM (inactive)"}
{"smiles": "COc1cc(/C=C/C(=O)c2ccc3c(c2)OCCO3)cc(Br)c1OCC(=O)N(C)C", "EC50": "> 80 µM (inactive)"}
{"smiles": "COc1ccccc1-c1nnc(Nc2nc3c(OC)cccc3s2)o1", "EC50": "> 80 µM (inactive)"}
{"smiles": "O=C(/C=C/c1cccnc1)c1ccc(NC(=O)c2cccc(Br)c2)cc1", "EC50": "> 80 µM (inactive)"}
{"smiles": "O=C(c1ccc(Cl)cc1)C(CN1CCCC1)c1ccccc1", "note": "(stereo not given)", "EC50": "> 80 µM (inactive)"}
{"smiles": "COc1cccc(N=Nc2ccc(O)c3ncccc23)c1", "EC50": "> 80 µM (inactive)"}
{"smiles": "CC1CCCCC1N1CN=C(Nc2nc3ccccc3s2)NC1", "note": "(stereo not given)", "EC50": "> 80 µM (inactive)"}
{"smiles": "Cc1cc(C(=O)CCl)c(C)n1CCc1ccccc1", "EC50": "> 80 µM (inactive)"}
{"smiles": "N#CC(C#N)=C1C=CC=CN1/C(=C\\c1ccccc1)C(=O)c1cccs1", "EC50": "> 80 µM (inactive)"}
{"smiles": "COc1cc(CN2CCN(c3cc(C)ccc3C)CC2)ccc1O", "EC50": "> 80 µM (inactive)"}
{"smiles": "Cc1ccc2cccc(NS(=O)(=O)c3ccccc3)c2n1", "EC50": "> 80 µM (inactive)"}
{"smiles": "Cc1ccccc1/C=C/C(=O)c1ccc([N+](=O)[O-])o1", "EC50": "> 80 µM (inactive)"}
{"smiles": "CC1(C)CCSC(/C=C/c2ccccc2)=N1", "EC50": "> 80 µM (inactive)"}
{"smiles": "CC(C)[C@H](NC(=O)OC(C)(C)C)c1nnc(S(=O)(=O)Cc2c(F)cccc2Cl)o1", "EC50": "> 80 µM (inactive)"}
{"smiles": "COc1ccc(C(=O)C(CN2CCOCC2)c2ccccc2)cc1", "note": "(stereo not given)", "EC50": "> 80 µM (inactive)"}
{"smiles": "O=C(/C(=N/N=C/c1ccc(O)c(O)c1)c1ccccc1)c1ccccc1", "EC50": "> 80 µM (inactive)"}
{"smiles": "COc1ccc(C2=CC(=O)N(Nc3ccccc3)C2=O)cc1", "EC50": "> 80 µM (inactive)"}
{"smiles": "O=C(CSc1nc2ccc(Nc3nc(N4CCOCC4)nc(N4CCOCC4)n3)cc2s1)Nc1ccccc1F", "pEC50": 5.25}
{"smiles": "CCOc1ccc(NC(=S)NC(=O)/C=C/c2ccc(OC)c(OC)c2)c([N+](=O)[O-])c1", "EC50": "> 80 µM (inactive)"}
{"smiles": "Cn1c(SCC(=O)NCC2CCCO2)ncc(C(=O)Nc2ccc(Cl)cc2)c1=O", "note": "(stereo not given)", "EC50": "> 80 µM (inactive)"}
